Data set [1] is described as follows: Single-dose oral pharmacokinetics of CBD in healthy dogs. It counts as in vivo. The settings on record: dog, serum. As for the experimental part: (§1) The single-dose oral pharmacokinetics of CBD and an assessment of safety and adverse effects during 12-week administration using a hemp-based product in healthy dogs and cats were determined in this study. […] More details about this study can be found in “Deabold, K. A.; Schwark, W. S.; Wolf, L.; Wakshlag, J. J., Single Dose Pharmacokinetics and Preliminary Safety Assessment with Use of CBD-Rich Hemp Nutraceutical in Healthy Dogs and Cats, Animals 2019, 9, 832, DOI 10.3390/ani9100832,” which is incorporated herein by reference in its entirety.

The nature of data set [2]: Single-dose oral pharmacokinetics of CBD in healthy cats. It counts as in vivo. The settings on record: serum, single oral dose 2 mg/kg total CBD/CBDA. Here is the method:
as §1

The target in another data set is T1, CYP2D15 (Canis lupus familiaris, UniProt Q29473).
T1 construct: P450-specific marker activities in pooled dog liver microsomes; from tissue; host or cells: pooled dog liver microsomes
T1 sequence (Q29473 1-500): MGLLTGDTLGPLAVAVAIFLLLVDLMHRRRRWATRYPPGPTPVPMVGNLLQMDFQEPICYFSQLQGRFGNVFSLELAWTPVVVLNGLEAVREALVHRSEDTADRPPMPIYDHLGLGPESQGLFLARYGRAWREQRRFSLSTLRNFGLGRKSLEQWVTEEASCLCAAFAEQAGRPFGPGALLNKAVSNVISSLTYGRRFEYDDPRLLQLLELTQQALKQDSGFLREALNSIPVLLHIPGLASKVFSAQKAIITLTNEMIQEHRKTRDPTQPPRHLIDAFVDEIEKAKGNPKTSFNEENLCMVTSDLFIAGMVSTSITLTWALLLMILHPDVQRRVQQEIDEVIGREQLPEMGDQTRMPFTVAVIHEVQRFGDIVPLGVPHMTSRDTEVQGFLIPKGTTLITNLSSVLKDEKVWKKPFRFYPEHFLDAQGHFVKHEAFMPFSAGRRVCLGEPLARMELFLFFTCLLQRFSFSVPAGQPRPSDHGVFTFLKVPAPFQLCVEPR
The data set is described as follows: CYP2D15 activity inhibition in pooled dog liver microsomes. The settings on record: no preincubation vs 20 min preincubation, 10 μM. It counts as in vitro ADME. A general note: Microsomes from liver hold many membrane-bound enzymes, among them those of drug oxidation.

The next data set has as its target T2, canine P-glycoprotein (Canis lupus familiaris, UniProt C0KKU9).
T2 construct: host or cells: MDCK PGP cells (canine P-gp expressing cell line)
Put plainly: P-glycoprotein competitive transport assay (rhodamine 123, MDCK PGP cells). It counts as in vitro ADME. The settings on record: highest concentration tested, 1,000 ng/mL. As for the experimental part: In this second study, a competitive P-gp substrate assay incorporating a canine P-gp expressing cell line is used to assess each test compound's ability to compete with the P-gp substrate rhodamine 123. Each concentration is tested on 3 separate days with same-day duplicates. Positive controls and negative controls are included in each run.
Results for each concentration of test compound evaluated are reported as non-P-gp substrate, weak P-gp substrate, moderate P-gp substrate, or strong P-gp substrate. The concentrations for CBD and CBDA are as follows: 10 ng/mL, 100 ng/mL and 1,000 ng/mL.
A competitive P-gp substrate assay using a canine P-gp expressing cell line was used to assess CBDA and/or CBD as a substrate for canine P-glycoprotein.

For data set [3], the system named is 17-71 B cell lymphoma cell line. The data set is described as follows: 48 hours MTT proliferation assay, 17-71. It counts as cell-based, canine. The settings on record: pure compound. As for the experimental part:
(§2) 3-(4,5-Dimethylthaizol-2-yl)-2,5-diphenyltetrazolium bromide (MTT) assays are performed on all previously described cell lines; CMT12, HMPOS, D17, Abrams and 17-71. […] Cells are treated with vehicle (methanol or ethanol/DMSO mix) or various concentrations of the CBD, CBDA or CBD-rich hemp extract ranging from 0.42 to 20 μg/mL in serial dilution for 48 hours. MTT assays are performed after 48 hours of treatment by adding 20 μL of MTT dye ([…] filtered 5 mg/mL in phosphate-buffered saline [PBS]) to each well and incubating at 37° C. in 5% CO2 for 2 hours. The media is then aspirated, washed once with 200 μL of PBS and then solubilized in 200 μL of ethanol. Immediate analysis of the optical density of each well is performed using a spectrophotometric plate reader (Epoch; Biotek, Winooski, Vermont) at a wavelength of 570 nm as previously described (e.g., Vega-Avila E and Pugsley M K, An overview of colorimetric assay methods used to assess survival or proliferation of mammalian cells, Proc West Pharmacol Soc., 2011, 54, pp. 10-14 which is incorporated herein by reference in its entirety). The percent proliferating cells of control for each concentration is averaged and reported as a mean+/—SD from triplicate wells over three experiments.
(§3) For CBD, CBDA and hemp extract concentrations needed to obtain a 50% inhibition of cell proliferation (IC50) are then calculated across experiments by Probit analysis using XLFit5 software (IDBS, Guildford, United Kingdom) for reporting the results for each cell line.

Data set [4] concerns CMT12 mammary gland carcinoma cell line. Put plainly: 48 hours MTT proliferation assay, CMT12. It counts as cell-based, canine. Conditions: pure compound. Here is the method: as §2, §3
On the technique in general: Tetrazolium dyes change colour on reduction, which living cells bring about.

In data set [5] the test system is Abrams osteosarcoma cell line. Put plainly: 48 hours MTT proliferation assay, Abrams. It counts as cell-based, canine. Conditions: pure compound. Here is the method:
as §2, §3

The subject of a further data set is D17 cells. The data set is described as follows: Annexin V-FITC apoptosis assay, D17. It counts as cell-based, canine. The settings on record: 15 μg/mL CBD, 4 hours, VC 6.5±0.6%. As for the experimental part: (§4) Apoptosis after 4 and 8 hours treatment is measured using Annexin-V staining (Invitrogen Annexin V-FITC staining kit, Carlsbad, California). Briefly, cells are detached with Accumax (Innovative Cell Technologies, San Diego, California), collected and centrifuged for 10 m at 1000 g at 4° C. The pellet is washed once with PBS before resuspension in Annexin Binding Buffer (ABB; 10 mM HEPES, 140 mM NaCl, 2.5 mM CaCl2, pH 7.4) at a density of approximately 1×10^6 cell/mL. […] After the incubation, ABB is added to the cell suspension and kept on ice until fluorescence is measured with the BD FACScalibur flow cytometer using an argon laser (BD Biosciences, Ashland, Oregon). Ten thousand events are collected per sample. Analysis is performed with the FlowJo software (Version 10.7.1. Becton, Dickinson, Ashland, Oregon) by first gating based on the forward- and side-scatter characteristics for each cell line followed by Annexin V-FITC positive cells. Negative fluorescence controls are unstained cells. Three independent replicates are examined for each treatment.

The subject of another data set is CMT12 cell line. Put plainly: Annexin V-FITC apoptosis assay, CMT12. The settings on record: 15 μg/mL CBD, VC 10.9±2.0%. It counts as cell-based, canine. Here is the method: as §4
Where [6] appears, read: Canis lupus familiaris, read-out: IC50 (Probit).

Converted amounts (≈) assume the structure as drawn.

T2 sequence (C0KKU9 1-1281): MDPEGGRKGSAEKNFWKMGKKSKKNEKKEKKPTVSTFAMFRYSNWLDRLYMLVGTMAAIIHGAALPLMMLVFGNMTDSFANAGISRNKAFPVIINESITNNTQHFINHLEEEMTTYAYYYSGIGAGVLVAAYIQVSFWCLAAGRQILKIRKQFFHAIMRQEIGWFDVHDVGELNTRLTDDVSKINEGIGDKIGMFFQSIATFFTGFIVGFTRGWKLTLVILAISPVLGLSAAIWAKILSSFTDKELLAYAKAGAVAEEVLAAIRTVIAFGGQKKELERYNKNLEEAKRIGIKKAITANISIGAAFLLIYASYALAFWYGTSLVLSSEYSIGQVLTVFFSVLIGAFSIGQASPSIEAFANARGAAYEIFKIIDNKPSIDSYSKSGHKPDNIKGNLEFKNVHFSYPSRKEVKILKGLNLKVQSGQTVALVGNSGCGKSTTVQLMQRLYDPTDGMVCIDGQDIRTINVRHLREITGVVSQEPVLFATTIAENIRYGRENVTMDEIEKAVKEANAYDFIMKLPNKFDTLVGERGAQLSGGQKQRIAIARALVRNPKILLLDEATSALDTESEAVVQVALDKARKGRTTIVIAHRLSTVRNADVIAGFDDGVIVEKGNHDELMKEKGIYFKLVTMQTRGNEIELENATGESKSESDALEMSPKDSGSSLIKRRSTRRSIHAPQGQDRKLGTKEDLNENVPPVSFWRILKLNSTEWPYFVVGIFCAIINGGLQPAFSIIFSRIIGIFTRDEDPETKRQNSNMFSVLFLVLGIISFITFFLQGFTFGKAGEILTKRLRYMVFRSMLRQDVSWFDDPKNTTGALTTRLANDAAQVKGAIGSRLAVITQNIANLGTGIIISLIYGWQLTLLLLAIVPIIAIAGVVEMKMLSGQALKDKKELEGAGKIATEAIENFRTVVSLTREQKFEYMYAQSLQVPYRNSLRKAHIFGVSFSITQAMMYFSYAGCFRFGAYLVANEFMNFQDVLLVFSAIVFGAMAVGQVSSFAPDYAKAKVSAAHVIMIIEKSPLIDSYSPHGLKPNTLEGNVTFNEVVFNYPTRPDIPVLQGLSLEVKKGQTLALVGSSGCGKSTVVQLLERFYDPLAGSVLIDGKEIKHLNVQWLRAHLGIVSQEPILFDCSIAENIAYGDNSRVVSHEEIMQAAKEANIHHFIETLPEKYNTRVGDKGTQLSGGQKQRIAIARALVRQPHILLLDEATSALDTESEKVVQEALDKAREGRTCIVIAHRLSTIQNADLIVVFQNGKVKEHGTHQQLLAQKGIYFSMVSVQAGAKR
Experimental for CYP2D15: Inhibition potency (i.e. IC50) is determined by measuring the decrement in metabolism of P450-specific marker activities in pooled dog liver microsomes with increasing concentrations of CBD, CBDA, and hemp extracts. P450-specific markers include bupropion 6-hydroxylation (CYP2B11), dextromethorphan 0-demethylation (CYP2D15) and omeprazole sulfoxidation (CYP3A12). IC50 values are determined both with and without preincubation of liver microsomes with potential inhibitor to evaluate whether there is mechanism-based time-dependent inhibition.
The following parameters are assessed: (1) the rates of CBD and CBDA metabolism by dog liver microsomes and by 11 recombinant canine P450 enzymes; (2) the predicted percent contribution of each P450 to total CBD and CBDA metabolism in dog liver; and (3) IC50 values for inhibition of CYP2B11, CYP2D15 and CYP3A12 metabolism in dog liver, both with and without inhibitor preincubation.

As usually defined, the AUC is concentration integrated over time. One may read the IC50 as the point on the concentration scale where inhibition reaches its midpoint. As for `C=C(C)[C@@H]1CCC(C)=C[C@H]1c1c(O)cc(CCCCC)cc1O` [CBD, cannabidiol], the Cmax came to 301 ng/mL in data set [1] (single oral dose 2 mg/kg total CBD/CBDA (1 mg/kg CBD and 1 mg/kg CBDA), read-out: mean maximum CBD concentration (Cmax)); 43 ng/mL in data set [2] (read-out: mean maximum CBD concentration (Cmax)). The AUC in data set [1] (single oral dose 2 mg/kg total CBD/CBDA, read-out: area under the curve (AUC)) is 1300 ng·h/mL; in data set [2] (read-out: area under the curve (AUC)) it was 164 ng·h/mL. Besides, the Tmax was 1.4 h in data set [1] (single oral dose 2 mg/kg total CBD/CBDA, read-out: time to maximal concentration (Tmax)) and 2 h in data set [2] (read-out: time to maximal concentration (Tmax)). Besides, the “time-dependent inhibition (TDI)” value on CYP2D15 is on record as “showed time-dependent inhibition (TDI)”. Further, at canine P-glycoprotein, the P-gp substrate classification result is “not a substrate for canine PGP”. Also, the IC50 in data set [3] (Canis lupus familiaris, B-cell, read-out: IC50 (Probit)) was determined as 2.5 µg/mL (≈ 7.95 µM); in data set [4] (setting [6]) it was 3.5 µg/mL (≈ 11.1 µM); in data set [5] (setting [6]), 4.1 µg/mL (≈ 13 µM). Besides, the entries for the “concentrations that significantly diminished proliferation vs vehicle control” value in [3] (P<0.05), in data set [4] (P<0.05) and in data set [5] (P<0.05) were not below 2.5 µg/mL, not below 2.5 µg/mL and not below 5 µg/mL, respectively. Besides, the figures for the “Annexin V positive staining cells” value in the data set with D17 cells, in the data set with CMT12 cell line (4 hours) and in the data set with CMT12 cell line (8 hours) were 9.4±1.8%, 15.7±2.2% and 21.5±2.5%, respectively.
